# Numbers after ± are expanded uncertainties.
# Test: molar heat capacity at constant pressure
# Details: 101.33 kPa, Crystal, Thermal relaxation technique
compound,measurement,setting,value
[Hf+4].[O-2].[O-2] [hafnium(IV) oxide],molar heat capacity at constant pressure,1.92 K,0.0006 ± 0.0001 J/K/mol
same,molar heat capacity at constant pressure,2 K,0.00065 ± 8.1e-05 J/K/mol
same,molar heat capacity at constant pressure,2.04 K,0.0007 ± 0.0001 J/K/mol
same,molar heat capacity at constant pressure,2.19 K,0.0009 ± 0.0001 J/K/mol
same,molar heat capacity at constant pressure,2.48 K,0.0011 ± 0.0001 J/K/mol
same,molar heat capacity at constant pressure,2.8 K,0.0015 ± 0.0002 J/K/mol
same,molar heat capacity at constant pressure,3.09 K,0.002 ± 0.0002 J/K/mol
same,molar heat capacity at constant pressure,3.4 K,0.0027 ± 0.0003 J/K/mol
same,molar heat capacity at constant pressure,3.77 K,0.0037 ± 0.0004 J/K/mol
same,molar heat capacity at constant pressure,4.17 K,0.0048 ± 0.0005 J/K/mol
same,molar heat capacity at constant pressure,4.63 K,0.0065 ± 0.0007 J/K/mol
same,molar heat capacity at constant pressure,5 K,0.00802 ± 0.00082 J/K/mol
same,molar heat capacity at constant pressure,5.17 K,0.0091 ± 0.0009 J/K/mol
same,molar heat capacity at constant pressure,5.74 K,0.0118 ± 0.0012 J/K/mol
same,molar heat capacity at constant pressure,6.4 K,0.0162 ± 0.0016 J/K/mol
same,molar heat capacity at constant pressure,7.11 K,0.022 ± 0.0022 J/K/mol
same,molar heat capacity at constant pressure,7.9 K,0.0304 ± 0.003 J/K/mol
same,molar heat capacity at constant pressure,8.79 K,0.0411 ± 0.0041 J/K/mol
same,molar heat capacity at constant pressure,9.77 K,0.0569 ± 0.0057 J/K/mol
same,molar heat capacity at constant pressure,10 K,0.061 ± 0.006 J/K/mol
same,molar heat capacity at constant pressure,10.87 K,0.0795 ± 0.008 J/K/mol
same,molar heat capacity at constant pressure,12.08 K,0.1132 ± 0.011 J/K/mol
same,molar heat capacity at constant pressure,13.43 K,0.1598 ± 0.016 J/K/mol
same,molar heat capacity at constant pressure,14.85 K,0.2256 ± 0.023 J/K/mol
same,molar heat capacity at constant pressure,16.63 K,0.3276 ± 0.033 J/K/mol
same,molar heat capacity at constant pressure,18.43 K,0.4834 ± 0.048 J/K/mol
same,molar heat capacity at constant pressure,20 K,0.63 ± 0.01 J/K/mol
same,molar heat capacity at constant pressure,20.37 K,0.6725 ± 0.014 J/K/mol
same,molar heat capacity at constant pressure,22.69 K,0.967 ± 0.019 J/K/mol
same,molar heat capacity at constant pressure,25.26 K,1.369 ± 0.028 J/K/mol
same,molar heat capacity at constant pressure,28.1 K,1.905 ± 0.038 J/K/mol
same,molar heat capacity at constant pressure,30 K,2.3 ± 0.05 J/K/mol
same,molar heat capacity at constant pressure,31.26 K,2.569 ± 0.052 J/K/mol
same,molar heat capacity at constant pressure,34.79 K,3.429 ± 0.069 J/K/mol
same,molar heat capacity at constant pressure,38.68 K,4.469 ± 0.09 J/K/mol
same,molar heat capacity at constant pressure,40 K,4.82 ± 0.1 J/K/mol
same,molar heat capacity at constant pressure,43 K,5.684 ± 0.11 J/K/mol
same,molar heat capacity at constant pressure,47.81 K,7.049 ± 0.14 J/K/mol
same,molar heat capacity at constant pressure,50 K,7.72 ± 0.15 J/K/mol
same,molar heat capacity at constant pressure,53.14 K,8.65 ± 0.17 J/K/mol
same,molar heat capacity at constant pressure,59.07 K,10.45 ± 0.21 J/K/mol
same,molar heat capacity at constant pressure,65.65 K,12.39 ± 0.25 J/K/mol
same,molar heat capacity at constant pressure,72.95 K,14.5 ± 0.29 J/K/mol
same,molar heat capacity at constant pressure,81.06 K,16.95 ± 0.34 J/K/mol
same,molar heat capacity at constant pressure,90.05 K,19.69 ± 0.39 J/K/mol
same,molar heat capacity at constant pressure,100 K,22.26 ± 0.45 J/K/mol
same,molar heat capacity at constant pressure,100.01 K,22.35 ± 0.45 J/K/mol
same,molar heat capacity at constant pressure,110.26 K,25.03 ± 0.5 J/K/mol
same,molar heat capacity at constant pressure,120.29 K,27.43 ± 0.55 J/K/mol
same,molar heat capacity at constant pressure,130.3 K,29.98 ± 0.6 J/K/mol
same,molar heat capacity at constant pressure,140.32 K,32.44 ± 0.65 J/K/mol
same,molar heat capacity at constant pressure,150 K,34.61 ± 0.69 J/K/mol
same,molar heat capacity at constant pressure,150.53 K,34.59 ± 0.69 J/K/mol
same,molar heat capacity at constant pressure,160.66 K,36.82 ± 0.74 J/K/mol
same,molar heat capacity at constant pressure,170.61 K,38.83 ± 0.78 J/K/mol
same,molar heat capacity at constant pressure,180.78 K,40.81 ± 0.82 J/K/mol
same,molar heat capacity at constant pressure,190.96 K,42.62 ± 0.85 J/K/mol
same,molar heat capacity at constant pressure,200 K,44.22 ± 0.88 J/K/mol
same,molar heat capacity at constant pressure,201.26 K,44.45 ± 0.89 J/K/mol
same,molar heat capacity at constant pressure,211.45 K,46.16 ± 0.92 J/K/mol
same,molar heat capacity at constant pressure,221.7 K,48.01 ± 0.96 J/K/mol
same,molar heat capacity at constant pressure,231.89 K,49.47 ± 0.99 J/K/mol
same,molar heat capacity at constant pressure,242.02 K,50.89 ± 1 J/K/mol
same,molar heat capacity at constant pressure,250 K,51.9 ± 1 J/K/mol
same,molar heat capacity at constant pressure,252.09 K,52.39 ± 1 J/K/mol
same,molar heat capacity at constant pressure,262.17 K,53.45 ± 1.1 J/K/mol
same,molar heat capacity at constant pressure,272.31 K,54.56 ± 1.1 J/K/mol
same,molar heat capacity at constant pressure,273.15 K,54.95 ± 1.1 J/K/mol
same,molar heat capacity at constant pressure,282.4 K,55.7 ± 1.1 J/K/mol
same,molar heat capacity at constant pressure,292.46 K,56.89 ± 1.1 J/K/mol
same,molar heat capacity at constant pressure,298.15 K,57.73 ± 1.1 J/K/mol
same,molar heat capacity at constant pressure,302.51 K,58.63 ± 1.2 J/K/mol
